# “Also recorded” adds a separate entry of the source.
# How the values were obtained:
# Assay type in all cases: cell-based, Pseudomonas aeruginosa
# [1] = tested on: 30B1 mutant colony biofilm
# [2] = tested on: 45E7 mutant colony biofilm
# [3] = tested on: 45E7 mutant flow cell biofilm
smiles,measurement,setting,value
"NC[C@H]1O[C@H](O[C@H]2[C@H](O)[C@@H](O[C@H]3O[C@H](CO)[C@@H](O)[C@H](N)[C@H]3O)[C@H](N)C[C@@H]2N)[C@H](N)C[C@@H]1O [Tb, tobramycin]",drop in viable count in colony biofilm,[1],~10^9
same,viable cells in colony biofilm,[1],below detection; also recorded: no viable cells detected
same,resistance of colony biofilm cells,[2],as resistant to the effects of Tb as the wild type
same,viable cells in colony biofilm,[2],below detection; also recorded: no viable cells were detected
same,live versus dead cells in Tb-treated biofilm (BacLight),[3],more dead cells than live ones

# From patent publication US7109294B2, “Bacterial glycosyltransferase polypeptides involved in antibiotic resistance” (priority 2001, dated 2006)
